In patent US11220693B2, “Method for converting monocot plant genome sequence in which nucleic acid base in targeted DNA sequence is specifically converted, and molecular complex used therein” (NATIONAL UNIVERSITY CORPORATION KOBE UNIVERSITY, priority 2015, dated 2022):

Experiments:
[1] = system: rice callus; assay: Effective concentration of Imazamox on rice callus under aseptic culture conditions; type: cell-based, Oryza sativa; settings: 2N6 medium, 28 days; for proliferation state of the callus: 31.5° C.
Method: Based on 2N6 solid medium (mentioned earlier), media in 4 stages (0 mg/L, 30 mg/L, 50 mg/L, 70 mg/L) with different Imazamox concentrations were produced. Callus was induced from the scutellum part of rice seed (mentioned earlier), inoculated to 2N6 solid medium added with Imazamox, cultured at 31.5° C. for 28 days in the dark all day, and the proliferation state of the callus was confirmed.
From the above, it was determined that the effective concentration of Imazamox for rice callus was 70 mg/L.

[2] = system: rice (Oryza sativa. L Japonica brand; Nipponbare) seeds; assay: Effective concentration of Imazamox on rice plant body under aseptic culture conditions (seed germination); type: in vivo
Method: Based on 1/2 MS solid medium (MS mix (Sigma), sucrose 15.0 g/L, Gelrite (Wako Pure Chemical Industries, Ltd.) 4.0 g/L, pH 5.8), media in 9 stages (0 mg/L, 0.5 mg/L, 1 mg/L, 2 mg/L, 4 mg/L, 5 mg/L, 10 mg/L, 20 mg/L, 30 mg/L) with different Imazamox concentrations were produced. Successively, chaff of rice (Oryza sativa. L Japonica brand; Nipponbare) seeds was removed, the seeds were shaken in 70% ethanol for 1 min, and sterilized by immersing in 2.5% sodium hypochlorite for 20-30 min while allowing for penetration. […]
From the above, it was determined that the effective concentration of Imazamox under the aseptic culture conditions for rice plant body was 0.5 mg/L.

SMILES: COCc1cnc(C2=NC(C)(C(C)C)C(=O)N2)c(C(=O)O)c1 (stereo not drawn) [Imazamox]
- effective concentration of Imazamox for rice callus [1]: 70 mg/L
- proliferation state of the callus ([1]; Imazamox 50 mg/L or below): mitotic proliferation of callus was observed
- proliferation state of the callus ([1]; Imazamox 70 mg/L): mitotic proliferation was inhibited
- number of seeds, germination (7 days later) ([2]; Imazamox 0.5 mg/L in 1/2 MS medium, 24 seeds): 0
- germination circumstances ([2]; Imazamox 0.5 mg/L or more, 25° C., 7 days): browning of embryo stem and whitening of coleoptile was confirmed in all seeds
- survival rate (%) ([2]; Imazamox 0.5 mg/L, 7 days): 0%
- number of seeds, germination (7 days later) ([2]; Imazamox 1 mg/L in 1/2 MS medium, 23 seeds): 0
- survival rate (%) ([2]; Imazamox 1 mg/L, 7 days): 0%
- number of seeds, germination (7 days later) ([2]; Imazamox 2 mg/L in 1/2 MS medium, 24 seeds): 0
- survival rate (%) ([2]; Imazamox 2 mg/L, 7 days): 0%
- number of seeds, germination (7 days later) ([2]; Imazamox 4 mg/L in 1/2 MS medium, 24 seeds): 0
- survival rate (%) ([2]; Imazamox 4 mg/L, 7 days): 0%
- number of seeds, germination (7 days later) ([2]; Imazamox 5 mg/L in 1/2 MS medium, 24 seeds): 0
- survival rate (%) ([2]; Imazamox 5 mg/L, 7 days): 0%
- number of seeds, germination (7 days later) ([2]; Imazamox 10 mg/L in 1/2 MS medium, 24 seeds): 0
- survival rate (%) ([2]; Imazamox 10 mg/L, 7 days): 0%
- number of seeds, germination (7 days later) ([2]; Imazamox 20 mg/L in 1/2 MS medium, 24 seeds): 0
- survival rate (%) ([2]; Imazamox 20 mg/L, 7 days): 0%
- number of seeds, germination (7 days later) ([2]; Imazamox 30 mg/L in 1/2 MS medium, 24 seeds): 0
- survival rate (%) ([2]; Imazamox 30 mg/L, 7 days): 0%
- effective concentration of Imazamox for rice plant body ([2]; aseptic culture conditions, 1/2 MS medium, 7 days): 0.5 mg/L
